Test results from ChEMBL document CHEMBL3046841, “The synthesis and screening of the antimicrobial activity of some novel 3-(furan-2-yl)-1-(aryl)-3-(phenylthio) propan-1-one derivatives” (2011).
Converted amounts (≈) assume the structure as drawn.

Key:
Assay type in all cases: functional
Pseudomonas aeruginosa [1] = assay: Antimicrobial activity against Pseudomonas aeruginosa ATCC 9027 after 24 hr by serial microdilution method; conditions: ATCC 9027, 24 h
Bacillus cereus [2] = assay: Antimicrobial activity against Bacillus cereus DSM 4312 after 24 hr by serial microdilution method; conditions: DSM 4312, 24 h
Staphylococcus aureus [3] = assay: Antimicrobial activity against Staphylococcus aureus ATCC 29213 at 105 ug/disc after 24 hr by disk diffusion method; conditions: ATCC 29213, 24 h, read-out: IZ
Proteus vulgaris [4] = assay: Antimicrobial activity against Proteus vulgaris KUEN 1329 after 24 hr by serial microdilution method; conditions: KUEN 1329, 24 h
Bacillus cereus [5] = assay: Antimicrobial activity against Bacillus cereus DSM 4312 at 105 ug/disk after 24 hr by disk diffusion method; conditions: DSM 4312, 24 h, read-out: IZ
Candida albicans [6] = assay: Antimicrobial activity against Candida albicans ATCC 1213 by serial microdilution method
Staphylococcus aureus [7] = assay: Antimicrobial activity against Staphylococcus aureus ATCC 29213 after 24 hr by serial microdilution method; conditions: ATCC 29213, 24 h
Cyberlindnera jadinii [8] = assay: Antimicrobial activity against Cyberlindnera jadinii KUEN 1031 serial microdilution method; conditions: Williopsis jadinii
Candida albicans [9] = assay: Antimicrobial activity against Candida albicans ATCC 1213 at 105 ug/disk after 48 hr by disk diffusion method; conditions: ATCC 1213, 48 h, read-out: IZ
Escherichia coli [10] = assay: Antimicrobial activity against Escherichia coli 111 after 24 hr by serial microdilution method; conditions: Escherichia coli, 111, 24 h
Proteus vulgaris [11] = assay: Antimicrobial activity against Proteus vulgaris KUEN 1329 at 105 ug/disk after 24 hr by disk diffusion method; conditions: KUEN 1329, 24 h, read-out: IZ
Bacillus subtilis [12] = assay: Antimicrobial activity against Bacillus subtilis ATCC 6633 after 24 hr by serial microdilution method; conditions: ATCC 6633, 24 h
Salmonella enteritidis [13] = assay: Antimicrobial activity against Salmonella enterica subsp. enterica serovar Enteritidis ATCC 13076 at 105 ug/disk after 24 hr by disk diffusion method; conditions: ATCC 13076, 24 h, read-out: IZ
Streptococcus pyogenes [14] = assay: Antimicrobial activity against Streptococcus pyogenes ATCC 176 after 24 hr by serial microdilution method; conditions: ATCC 176, 24 h
Bacillus subtilis [15] = assay: Antimicrobial activity against Bacillus subtilis ATCC 6633 at 105 ug/disk after 24 hr by disk diffusion method; conditions: ATCC 6633, 24 h, read-out: IZ
Pseudomonas aeruginosa [16] = assay: Antimicrobial activity against Pseudomonas aeruginosa ATCC 27859 at 105 ug/disk after 24 hr by disk diffusion method; conditions: ATCC 27859, 24 h, read-out: IZ
Streptococcus pyogenes [17] = assay: Antimicrobial activity against Streptococcus pyogenes ATCC 176 at 105 ug/disc after 24 hr by disc diffusion method; conditions: ATCC 176, 24 h, read-out: IZ
Pseudomonas aeruginosa [18] = assay: Antimicrobial activity against Pseudomonas aeruginosa ATCC 27859 after 24 hr by serial microdilution method; conditions: ATCC 27859, 24 h
Cyberlindnera jadinii [19] = assay: Antimicrobial activity against Cyberlindnera jadinii KUEN 1031 at 105 ug/disc after 48 hr by disk diffusion method; conditions: Williopsis jadinii, KUEN 1031, 48 h; read-out: IZ
Pseudomonas aeruginosa [20] = assay: Antimicrobial activity against Pseudomonas aeruginosa ATCC 9027 at 105 ug/disk after 24 hr by disk diffusion method; conditions: ATCC 9027, 24 h, read-out: IZ
Salmonella enteritidis [21] = assay: Antimicrobial activity against Salmonella enterica subsp. enterica serovar Enteritidis ATCC 13076 after 24 hr by serial microdilution method; conditions: ATCC 13076, 24 h
Escherichia coli [22] = assay: Antimicrobial activity against Escherichia coli 111 at 105 ug/disk after 24 hr by disk diffusion method; conditions: Escherichia coli, 111, 24 h; read-out: IZ

Row | MIC (Pseudomonas aeruginosa [1]) | MIC (Bacillus cereus [2]) | MIC (Proteus vulgaris [4]) | MIC (Candida albicans [6]) | MIC (Staphylococcus aureus [7]) | MIC (Cyberlindnera jadinii [8]) | MIC (Escherichia coli [10]) | MIC (Bacillus subtilis [12]) | MIC (Streptococcus pyogenes [14]) | MIC (Pseudomonas aeruginosa [18]) | MIC (Salmonella enteritidis [21]) | Structure (SMILES) | zone of inhibition at 105 µg/disc (Bacillus cereus [5]) | zone of inhibition at 105 µg/disc (Candida albicans [9]) | zone of inhibition at 105 µg/disc (Proteus vulgaris [11]) | zone of inhibition at 105 µg/disc (Salmonella enteritidis [13]) | zone of inhibition at 105 µg/disc (Bacillus subtilis [15]) | zone of inhibition at 105 µg/disc (Streptococcus pyogenes [17]) | zone of inhibition at 105 µg/disc (Cyberlindnera jadinii [19]) | zone of inhibition at 105 µg/disc (Pseudomonas aeruginosa [20]) | zone of inhibition at 105 µg/disc (Escherichia coli [22]) | also measured
1 | 31.2 µg/mL (≈ 92.3 µM) | 31.2 µg/mL (≈ 92.3 µM) | 31.2 µg/mL (≈ 92.3 µM) | 125 µg/mL (≈ 369 µM) | 7.81 µg/mL (≈ 23.1 µM) | 125 µg/mL (≈ 369 µM) | 62.5 µg/mL (≈ 185 µM) | 31.2 µg/mL (≈ 92.3 µM) | 31.2 µg/mL (≈ 92.3 µM) | 62.5 µg/mL (≈ 185 µM) | 15.6 µg/mL (≈ 46.2 µM) | COc1ccccc1C(=O)CC(Sc1ccccc1)c1ccco1 (configuration not stated) | 10 mm | 17 mm | 15 mm | 18 mm | 14 mm | 15 mm | 14 mm | 15 mm | 13 mm | zone of inhibition at 105 µg/disc (Staphylococcus aureus [3]): 17 mm; zone of inhibition at 105 µg/disc (Pseudomonas aeruginosa [16]): 15 mm
2 | > 125 µg/mL | 62.5 µg/mL (≈ 185 µM) | 31.2 µg/mL (≈ 92.3 µM) | 15.6 µg/mL (≈ 46.2 µM) | > 125 µg/mL | 15.6 µg/mL (≈ 46.2 µM) | 31.2 µg/mL (≈ 92.3 µM) | 62.5 µg/mL (≈ 185 µM) | 7.81 µg/mL (≈ 23.1 µM) | 125 µg/mL (≈ 369 µM) | 62.5 µg/mL (≈ 185 µM) | COc1cccc(C(=O)CC(Sc2ccccc2)c2ccco2)c1 (configuration not stated) |  | 17 mm | 14 mm | 17 mm | 12 mm |  | 13 mm |  | 14 mm | 
3 | 62.5 µg/mL (≈ 185 µM) | 62.5 µg/mL (≈ 185 µM) | 62.5 µg/mL (≈ 185 µM) | > 125 µg/mL | > 125 µg/mL | 125 µg/mL (≈ 369 µM) | 62.5 µg/mL (≈ 185 µM) | 125 µg/mL (≈ 369 µM) | > 125 µg/mL | 62.5 µg/mL (≈ 185 µM) | > 125 µg/mL | COc1ccc(C(=O)CC(Sc2ccccc2)c2ccco2)cc1 (configuration not stated) |  | 12 mm |  |  |  | 13 mm | 12 mm | 13 mm | 10 mm | 
4 | 31.2 µg/mL (≈ 91.1 µM) | 31.2 µg/mL (≈ 91.1 µM) | 31.2 µg/mL (≈ 91.1 µM) | 15.6 µg/mL (≈ 45.6 µM) | 7.81 µg/mL (≈ 22.8 µM) | 125 µg/mL (≈ 365 µM) | > 125 µg/mL | 31.2 µg/mL (≈ 91.1 µM) | 15.6 µg/mL (≈ 45.6 µM) | 125 µg/mL (≈ 365 µM) | 15.6 µg/mL (≈ 45.6 µM) | O=C(CC(Sc1ccccc1)c1ccco1)c1ccccc1Cl (configuration not stated) | 11 mm | 16 mm | 16 mm | 18 mm | 15 mm |  | 13 mm | 14 mm |  | zone of inhibition at 105 µg/disc (Staphylococcus aureus [3]): 18 mm; zone of inhibition at 105 µg/disc (Pseudomonas aeruginosa [16]): 14 mm
5 | 15.6 µg/mL (≈ 45.6 µM) | 31.2 µg/mL (≈ 91.1 µM) | 31.2 µg/mL (≈ 91.1 µM) | 15.6 µg/mL (≈ 45.6 µM) | 31.2 µg/mL (≈ 91.1 µM) | 15.6 µg/mL (≈ 45.6 µM) | > 125 µg/mL | 31.2 µg/mL (≈ 91.1 µM) | 31.2 µg/mL (≈ 91.1 µM) | 62.5 µg/mL (≈ 182 µM) | 15.6 µg/mL (≈ 45.6 µM) | O=C(CC(Sc1ccccc1)c1ccco1)c1cccc(Cl)c1 (configuration not stated) | 11 mm | 17 mm | 17 mm | 19 mm | 14 mm | 14 mm | 15 mm | 15 mm |  | zone of inhibition at 105 µg/disc (Staphylococcus aureus [3]): 16 mm; zone of inhibition at 105 µg/disc (Pseudomonas aeruginosa [16]): 16 mm
6 | > 125 µg/mL | 31.2 µg/mL (≈ 91.1 µM) | 7.81 µg/mL (≈ 22.8 µM) | 62.5 µg/mL (≈ 182 µM) | > 125 µg/mL | 62.5 µg/mL (≈ 182 µM) | 62.5 µg/mL (≈ 182 µM) | > 125 µg/mL | 125 µg/mL (≈ 365 µM) | > 125 µg/mL | 62.5 µg/mL (≈ 182 µM) | O=C(CC(Sc1ccccc1)c1ccco1)c1ccc(Cl)cc1 (configuration not stated) | 10 mm | 14 mm | 14 mm | 17 mm |  | 13 mm | 14 mm | 15 mm | 10 mm | 
7 | > 125 µg/mL | 31.2 µg/mL (≈ 80.7 µM) | 62.5 µg/mL (≈ 161 µM) | > 125 µg/mL | 7.81 µg/mL (≈ 20.2 µM) | > 125 µg/mL | 62.5 µg/mL (≈ 161 µM) | 31.2 µg/mL (≈ 80.7 µM) | > 125 µg/mL | 31.2 µg/mL (≈ 80.7 µM) | > 125 µg/mL | O=C(CC(Sc1ccccc1)c1ccco1)c1ccccc1Br (configuration not stated) | 12 mm | 17 mm | 16 mm | 15 mm | 15 mm | 13 mm | 15 mm | 15 mm | 10 mm | zone of inhibition at 105 µg/disc (Staphylococcus aureus [3]): 17 mm; zone of inhibition at 105 µg/disc (Pseudomonas aeruginosa [16]): 16 mm
